Data from patent publication US6500959B1, “Pyrrolidine derivatives and processes for preparing same” (GPI NIL Holdings, Inc., priority 1995, dated 2002).
“Also recorded” adds a separate entry of the source.

What was measured:
[1] = tested on: chick dorsal root ganglia; test: Chick dorsal root ganglion cultures and neurite outgrowth; type: cell-based; details: 48 h
Excerpt: (§1) Forty-eight hours later, the number of neurite with a length greater than one DRG explant was quantitated. The number of neurites expressed in untreated DRG's was subtracted from the neurite number of Example 17—treated samples to yield Example 17—dependent specific neurite outgrowth.
as §1, with “form” for “from”, “outgrowth. Quantitative dose-dependent neurite outgrowth elicited by Example 17 is presented.” for “outgrowth.”
Dorsal root ganglia were dissected from chick embryos of ten day gestation. Whole ganglion explants were cultured on thin layer Matrigel-coated 12 well plates with Liebovitz L15 plus high glucose media supplemented with 2 mM glutamine and 10% fetal calf serum, and also containing 10 μM cytosine β-D arabinofuranoside (Ara C) at 37° C. in an environment containing 5% CO2. Twenty-four hours later, the DRGs were treated with various concentrations of nerve growth factor, immunophilin ligands or combinations of NFG plus drugs. Forty-eight hours after drug treatment, the ganglia were visualized under phase contrast or Hoffman Modulation contrast with a Zeiss Axiovert inverted microscope. Photomicrographs of the explants were made, and neurite outgrowth was quantitated. Neurites longer than the DRG diameter were counted as positive, with total number of neurites quantitated per each experimental condition. Three to four DRGs are cultured per well, and each treatment was performed in duplicate.

dopaminergic neurons = test: MPTP model of Parkinson's Disease in mice; type: in vivo, CD1 mice
Protocol: FIG. 4 is a graph of [^3H]-CFT binding per μg of Striatal Membrane Protein. […] CD1 mice (25 g) were treated daily with 30 mg/kg MPTP (i.p.) for 5 days. […] After eighteen days, the mice were sacrificed, striata from 5 animals per group were pooled and processed into a washed membrane preparation. Binding of [3H]-CFT to these striated membrane preparations of various groups was quantitated to determine dopamine transporter levels on viable nerve terminals. Binding in the presence of 10 μM unlabelled CFT provided on estimate of nonspecific binding, which as subtracted from the total binding to quantitative specific [3H]-CFT bound. Binding was normalized to the protein content of the striatal membranes from each experimental group. Coronal and saggital brain sections from MPTP and drug treated animals were stained with anti-tyrosine hydroxylase (TH) Ig to quantitate striatal, medial forebrain bundle axonal and nigral levels of TH, which is indicative of functional dopaminergic neurons. […] Binding of [3H]CFT, a radioligand for the dopamine transporter, to the […] membranes was done to quantitate the level of the dopamine transporter (DAT) following lesion and drug treatment. Immunostaining was performed on saggital and coronal brain sections using anti-tyrosine hydoxylase Ig to quantitate survival and recovery of dopaminergic neurons. […]

CCC(C)(C)C(=O)C(=O)N1CCC[C@H]1C(=O)OCCCc1cccnc1 [Example 17, 3-(3-Pyridyl)-1-propyl (2S)-1-(3,3-dimethyl-1,2-dioxopentyl)-2-pyrrolidinecarboxylate]
EC50 ([1]; Gallus gallus, read-out: ED50, neurite outgrowth): 0.05 nM
neurite outgrowth in sensory neuronal cultures ([1]; chick DRG explants, various concentrations): potently promotes neurite outgrowth
recovery of [3H]-CFT binding (dopaminergic neurons; 40 mg/kg s.c. in addition to MPTP, striatal membranes, dopamine transporter level): greater than 90%
recovery of TH-stained dopaminergic neurons (tyrosine hydroxylase immunostaining) (dopaminergic neurons; 10-40 mg/kg s.c., striatum, nigra, medial forebrain bundle, versus MPTP/Vehicle): nearly quantitative recovery; also recorded: clear and marked recovery of functional neurons
